According to PMC10499603, “Polθ is phosphorylated by PLK1 to repair double-strand breaks in mitosis” (Nature, 2023):

What was measured:
Polθ foci in mitosis = Polθ foci in mitosis after siRNA; assay type: cell-based, human; conditions: siRNA knockdown
Procedure: (§1) Transfection of siRNA oligonucleotides (Eurofins) was performed using Lipofectamine RNAiMax (ThermoFisher Scientific) following the manufacturer’s instructions.
(§2) Cells grown on coverslips were fixed for 15 min in 2% paraformaldehyde, permeabilized for 10 min in 0.5% Triton X-100, blocked for 30 min in BSA 5%, 0.1% Triton X-100, immunostained for 1 h with primary antibodies, 45 min with secondary antibodies (Highly Cross-Adsorbed Secondary Antibodies Alexa Fluor, ThermoFisher Scientific) and mounted Vectashield mounting medium containing DAPI (Vector Laboratories). The same protocol was applied to mitotic cells, which were collected by shake off and centrifuged onto glass slides using a cytospin centrifuge (400g, 5 min) before fixation. […] Biotin azide-EdU click-it reaction was performed after fixation and permeabilization by incubating cells with a mix of Picolyl biotin, CuSO4, THPTA (Jena Bioscience) and sodium ascorbate in PBS for 30 min in the dark followed by an incubation with streptavidin conjugated Alex fluor 647 antibody (ThermoFisher Scientific) during 1 h at room temperature. Images were taken at 60× or 100× magnification using Upright Spinning disk Confocal Microscope (Roper/Zeiss) or at 40× magnification using DeltaVision (Deconvolution) Image Restoration Microscope. […] Images were analysed using the Fiji software. […]

[1] = test system: Polθ foci formation in RPE-1 cells expressing GFP–Polθ; test: siRNA screen for ionizing radiation-induced Polθ foci formation; assay type: cell-based, human; conditions: 10 nM siRNA, 72 h, then 5 Gy, 2 h; cells with at least 5 Polθ foci; median RZ score of the three siRNAs, three replicate experiments
Excerpt: The Human DDR siRNA library comprising 1,746 single siRNAs representing 582 human genes (3 siRNAs per gene) was obtained from ThermoFisher Scientific (A30089). For controls, siRNAs targeting GL2, kinesin family member 11 (KIF11) and GM130 were used to assess transfection efficacy and induced cell toxicity. FANCD2 siRNA ([…]dT, defined as FANCD2-ctrl in Supplementary Table 1) was used as a positive control inhibiting Polθ foci formation. RPE-1 cells expressing GFP–Polθ (250 cells per well in 384-well plates) were grown overnight. siRNAs were incubated 15 min with 0.05 μl Interferin reagent (Polyplus transfection) and Opti-MEM (ThermoFisher Scientific) prior to being transferred into each 384-well plate wells, to obtain a 10 nM final concentration. Cells were irradiated 72 h after transfection, at a dose of 5 Gy (226 s) with the CIXD irradiator (RadeXp platform, Institut Curie) and incubated at 37 °C, 5% CO2 for 2 h. […] Polθ was then identified as organelles in the nuclei area and quantified by the average intensity of pixels within the defined organelles region. […] Corrected values were normalized as follows: sample median and median absolute deviation (MAD) were calculated from the Interferin-treated population of each internal plate data points (named as Ref pop) and used to compute robust Z-scores[59] […]

Polθ foci in interphase = Polθ foci in interphase after siRNA; assay type: cell-based, human; conditions: siRNA knockdown
Procedure: as §1, §2

PLK1 [2] = test: In vitro kinase assay of Polθ immunoprecipitates with recombinant PLK1; assay type: biochemical; conditions: GFP–Polθ immunoprecipitate, recombinant PLK1 50, 100 or 500 ng, 5 μM ATP, [γ-32P]ATP, 30 min, 30 °C, autoradiography
Procedure: Immunoprecipitates of GFP–Polθ (2 h GFP trap at 4 °C, followed by 2 washes with 150 mM NaCl buffer and 1 wash with 300 mM NaCl) or 1.2 μg of RBER-CDC25tide (Reaction Biology, 0590-0000-1) were resuspended in 30 μl kinase buffer (Cell Signaling, 9802) containing 50, 100 or 500 ng of recombinant PLK1 (Reaction Biology, 0183-0000-1) and 5 μM ATP and 5 μCi [γ-^32P]ATP. After incubation for 30 min at 30 °C, reactions were stopped on ice by the addition of 2× Laemmli buffer and boiling for 5 min at 95 °C. Samples were separated on a 4–8% Tris-acetate gel (or 10% SDS–PAGE for the CDC25 positive control), and phosphorylated ^32P-Polθ and CDC25 were detected by autoradiography.

PLK1 [3] = test: Real-time NMR phosphorylation of Polθ fragments by PLK1; assay type: biochemical; conditions: SOFAST HMQC series, 298 K, 8 h, PLK1 1:200
Procedure: (§3) The NMR experiments were performed on the Polθ protein fragments (E1424–Q1503) and (E1540–S1660), either ^15N- or ^15N,^13C-labelled, and dissolved in the NMR buffer (with in addition 7% v/v D2O and EDTA-free Protease Inhibitor Cocktail 1× (Roche)). Most experiments were recorded on a 700 MHz Bruker ADVANCE NEO spectrometer equipped with a triple resonance cryogenically cooled probe. ^1HN, ^13Cα, ^13Cβ, ^13CO and ^15N resonance frequencies of the non-phosphorylated fragments were assigned at 283 K using 2D ^1H–^15N SOFAST HMQC, 3D HNCA, 3D HNCACB, 3D CBCA(CO)NH, 3D HNCO, 3D HN(CA)CO and 3D HN(CA)NNH experiments. All 3D experiments were recorded using non uniform sampling (NUS: 40–50%). To monitor phosphorylation by PLK1, either ^15N- or ^15N,^13C-labelled Polθ protein fragments were mixed with PLK1, and a series of 16 2D NMR ^1H-^15N SOFAST HMQC experiments were recorded at 298 K during 8 h, each experiment being a 1,536 × 160 dataset acquired with 80 scans during 30 min[50]. The temperature was then set to 283 K and 2D ^1H–^15N SOFAST HMQC, 3D HNCA, 3D HNCACB, 3D CBCA(CO)NH and 3D HN(CA)NNH experiments were recorded, in order to assign the resonance frequencies of the phosphorylated fragments (here again with NUS at 40–50%). […]

TOPBP1 = conditions: peptide on streptavidin beads, HeLa nuclear extract 350 μg, 2 h room temperature, immunoblot
Procedure: Peptides were coupled to streptavidin beads in 150 mM NaCl on a rotating wheel at room temperature, for 1 h. Beads were washed twice in 150 mM NaCl prior to use in pull-down assays. Nuclear extracts from HeLa cells (350 μg) or 2 ml of bacteria protein extracts were incubated with 1 nmol of desired streptavidin beads-coupled peptide, on a rotating wheel, for 2 h, at room temperature. After incubation, beads were washed three times using 150 mM NaCl RIPA buffer, and twice using 300 mM NaCl before elution in 2× Laemmli buffer. All buffers used were supplemented with phosphatase and protease inhibitors. Eluted proteins were analysed by SDS–PAGE to identify peptide partners. The same amount of peptides used for pull-downs was loaded into a separate gel, and biotin signal was detected in the migration front. […] 1628-P/S1635-P: biotin-[sequence]pSFIWSGAp[sequence]. S1628/S1635: biotin-[sequence].

[4] = molecular target: T1, TOPBP1 BRCT7-8 domain, TOPBP1 fragment (1264–1493) (UniProt Q92547 1264-1493); test: NMR titration; 2D 1H-15N spectra of 15N-labelled Polθ (E1424-Q1503), phosphorylated or not, without and with TOPBP1 BRCT7-8 at a 1:0.5 ratio; 25 mM HEPES, 50 mM NaCl, pH 7; conditions: both partners purified
T1 construct: source: bacteria protein extracts named for the peptide pull-down
T1 sequence (Q92547 1264-1493): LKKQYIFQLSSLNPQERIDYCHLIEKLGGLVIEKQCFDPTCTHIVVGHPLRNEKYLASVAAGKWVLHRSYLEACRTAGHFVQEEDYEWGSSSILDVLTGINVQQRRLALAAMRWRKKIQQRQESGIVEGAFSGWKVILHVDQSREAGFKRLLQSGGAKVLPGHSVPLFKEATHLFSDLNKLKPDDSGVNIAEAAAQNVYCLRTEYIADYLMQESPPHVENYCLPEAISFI

TOPBP1 BRCT7-8 = molecular target: T2, TOPBP1 BRCT7-8 (Homo sapiens, UniProt Q92547); test: 2D NMR of 15N-labelled Polθ fragment with TOPBP1 BRCT7-8; assay type: binding; conditions: 2D 1H–15N, Polθ fragment:BRCT7-8 1:0.5, 25 mM HEPES, 50 mM NaCl, pH 7
T2 construct: GST (N); TEV cleavage site; made in house; host or cells: E. coli BL21 (DE3) Star
T2 sequence (Q92547 1264-1493): as above
Procedure: as §3

ACAAAUACAUGGCUGGUUAdTdT (guide ACAAAUACAUGGCUGGUUATT; chemistry not fully specified) [TOPBP1, siRNA targeting TOPBP1]
Polθ foci formation in mitosis (Polθ foci in mitosis): suppressed Polθ foci (and filament) formation only in mitosis

GUCUCCCAGAAGACAGUGAdTdT (sense GUCUCCCAGAAGACAGUGATT; chemistry not fully specified) [MDC1, siRNA targeting MDC1]
Robust z score_corrected_Cells multi-foci_MultiFoci (%) [1]: -2.42 | Polθ foci formation in mitosis (Polθ foci in mitosis): prevented the formation of Polθ foci in both interphase and mitosis | Polθ foci formation in interphase (Polθ foci in interphase): prevented the formation of Polθ foci in both interphase and mitosis

Polθ: DNA polymerase theta
phosphorylation of Polθ by PLK1 (PLK1 [2]): direct phosphorylation of Polθ by PLK1 | kinetics of Polθ phosphorylation by PLK1 (PLK1 [3]): fast kinetics of Polθ phosphorylation

biotin-GSGTRQNHpSFIWSGApSFDLSPGLQRILDKVSS [1628-P/S1635-P]
interaction with TOPBP1 (TOPBP1): did not interact with TOPBP1

B1: phosphorylated recombinant Polθ fragment (E1424–Q1503) (domain or fragment, human, UniProt O75417 1424-1503, looked up)
chain: EENGLFLKKNEVSVTDSQLNSFLQGYQTQETVKPVILLIPQKRTPTGVEGECLPVPETSLNMSDSLLFDSFSDDYLVKEQ
modifications: 15N-labelled; phosphorylated by PLK1, sites include S1482, S1486, S1488 and S1493
notes: DNA polymerase theta (Polθ), human, residues E1424-Q1503; also called phosphorylated Polθ E1424–Q1503 fragment; Polθ protein fragment F1 (phosphorylated); source: E. coli BL21 (DE3) Star, purified (HisTrap, TEV cleavage, reverse HisTrap), then phosphorylated with PLK1; not shown: GB1, C-terminal, cleaved; His6, C-terminal, cleaved
binding result [4]: binds

B2: non-phosphorylated recombinant Polθ fragment (E1424–Q1503) (domain or fragment, human, UniProt O75417 1424-1503, looked up)
chain: B1 chain
modifications: 15N-labelled
notes: DNA polymerase theta (Polθ), human, residues E1424-Q1503; also called non-phosphorylated Polθ fragment from Glu1424 to Gln1503; Polθ protein fragment F1; source: E. coli BL21 (DE3) Star, purified (HisTrap, TEV cleavage, reverse HisTrap); not shown: GB1, C-terminal, cleaved; His6, C-terminal, cleaved
binding result [4]: binds

B3: non-phosphorylated recombinant Polθ (E1424–Q1503): recombinant Polθ fragment E1424–Q1503 from E. coli (protein, UniProt O75417 1424-1503, looked up, fragment)
chain: B1 chain
NMR signals lost upon addition of TOPBP1 BRCT7-8 (TOPBP1 BRCT7-8): only a few NMR peaks were lost upon addition of TOPBP1 BRCT7-8

B4: phosphorylated recombinant Polθ fragment (E1424–Q1503): recombinant Polθ fragment E1424–Q1503 phosphorylated by PLK1 (protein)
chain: B1 chain
modifications: 15N-labelled; phosphorylated by PLK1, sites include S1482, S1486, S1488 and S1493; left off: GB1, C-terminal, cleaved | His6, C-terminal, cleaved
NMR signals lost upon addition of TOPBP1 BRCT7-8 (TOPBP1 BRCT7-8): NMR signals corresponding to the Polθ region (p-S1482–L1499) were lost upon addition of BRCT7-8
